From patent publication EP0808325B1, “[…] […] SERIES FOR […] GABA RECEPTOR” (priority 1994, dated 1996)
Like-named read-outs stand apart in the source and are kept apart here.

Key:
GR complex = experiment: modulation of [35S]TBPS binding in rat cerebral cortex P2 homogenate; parameters: species or system Sprague-Dawley rats; IMAX: unit not given here; details: for IC50: concentration of compounds to inhibit 50% of control [35S]TBPS binding, 2 nM [35S]TBPS, 25°C, 90 minutes, no unit printed; for IMAX: maximum inhibition of [35S]TBPS binding, I* = Inactive
Summary of the method: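 Rat (male Sprague-Dawley) cortical P2 homogenate, 0.5 mg protein, in 50 mM Na/K phosphate pH 7.4, 200 mM NaCl, incubated 90 min at 25° C with 2 nM [35S]TBPS plus GABA and (+)bicuculline, compounds added in DMSO. Filter-bound radioactivity counted; nonspecific binding defined with […].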

rats = experiment: Vogel test; type: in vivo; details: i.c.v.
Excerpt: The Vogel test is based on the development of a conflict between a highly motivated behavior and an aversion. For this test, the strong motivation is thirst. The animal is water deprived for 12-16 hrs to produce the motivation to drink. During the training period the animals are exposed to the testing environment so they become accustomed to the drinking spout and minimize the fear of a novel environment. Following training, the animals are allowed access to water for 2 hrs. During this time, the animals will drink and eat their normal amount of water and food, compensating for the deprivation time. However, this schedule still produces a strong motivation to drink during the testing period.
Having been deprived of water for twelve to sixteen hours, an animal is placed in a test cage where it is allowed to drink freely for five minutes. This period is used to habituate the animal to the environment and the drinking spout Following the training period, animals have access to water and food in their home cage for 2 hrs. Food is available at all times. Twenty-four hours later, drug is administered to the animal intracerebroventricularly.
After an indicated delay started from the time of injection the animal is again placed in the test cage for ten minutes. A computer counts each time the animal licks, and after every twentieth lick administers a mild electric stimulus across the tongue and/or feet. The electrical stimulus consists of a 0.6 mA current with a duration of 100 msec. This procedure produces a state of conflict for the animal that is reduced by the administration of clinically used anxiolytic agents (i.e., Valium). For dose-response curves, separate groups of animals are injected with increasing doses of test drug and are tested at a predetermined time.

(+)bicuculline = details: cited from earlier work
strychnine = strychnine administered i.v.; data from Worms et al. 1982; cited from earlier work
picrotoxin = details: cited from earlier work
maximal electroshock [1] = details: cited from earlier work
[2] = test system: metrazol induced convulsions; details: cited from earlier work
[3] = test system: metrazol induced convulsions; experiment: animal or person; type: in vivo, mice; details: for % Protected: 10 mg/kg
mice [4] = details: Rotorod; data from Swinyard & Woodhead 1982; cited from earlier work
maximal electroshock [5] = experiment: maximal electroshock test; type: in vivo, mice; details: Mus musculus, ip, 20% hydroxypropyl-β-cyclodextrin in water
Excerpt: The anticonvulsant tests are similar to that described above. […]

mice [6] = experiment: elevated plus-maze; type: in vivo, N.I.H. Swiss-Webster mice
Summary of the method: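 Male Swiss-Webster mice (15-20 g), dosed once with drug or vehicle, were placed on an elevated plus-maze 10 min post-injection for 5 min. Open-arm entries and open-arm time recorded, each as a percentage of total arm entries or time; center time excluded.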

mice [7] = experiment: light/dark transition test; type: in vivo, N.I.H. Swiss-Webster mice; details: IP
Excerpt: The light/dark transition test (Crawley and Goodwin, Pharmacol. Biochem. Behav. 13:67-70 1980) is based on the observation that rodents naturally tend to explore novel environments, but open, brightly lit arenas are aversive to the rodents and inhibit exploratory behavior (Christmas and Maxwell, Neuropharmacol. 9:17-29 1970; File, J. Neurosci. Meth. 2:219-238 1980).
Male N.I.H. Swiss-Webster mice (Harlan, Harlan, Indianapolis, IN) weighing 15-20 g were housed four per cage in polyethylene cages with sawdust bedding. The colony room was environmentally controlled (22°C) with a 12 hr light/dark cycle (0600-1800 hr). Food and water were available ad libitum, except during testing. The experiments were run from 0700-1500 hr and groups were counterbalanced for time of day effects. Mice were only administered drug or vehicle once.
The method used was a modification of methods previously described (Wieland et al., Br. Res. 565:263-268 (1991)). The apparatus included two 2-compartment automated test chambers (Model RXYZCM16, Omnitech Electronics, Columbus, OH). The open compartment was connected to the enclosed compartment via a 7.5 x 7.5 cm passageway. The open compartment was brightly lit using a 200 W incandescent light bulb. The experimental room was kept dark. Interruptions of the infrared beams in either chamber were automatically recorded by being linked to a computer through a Digiscan Analyzer (Omnitech Electronics) and the data was analyzed using the Integrated Lab Animal Monitoring System (Omnitech Electronics).
N.I.H. Swiss-Webster mice were administered vehicle or test drug intraperitoneally (IP), 10 min later they were placed in the center of the lit compartment. The number of transitions between the lit and dark chambers, total activity in the lit chamber and the time spent in the lit chamber were measured during a 10 min test period.

## CC(C)(O)[C@H]1CC[C@H]2[C@@H]3CC[C@H]4C[C@H](O)CC[C@]4(C)[C@H]3CC[C@]12C [3α,20-dihydroxy-20-methyl-5α-pregnane]
GR complex
  IC50: 176 nM
  IMAX: 40
rats; g-CD, 20 ug
  Vogel (% of control): 179.0 % of control

## NC(=O)CCC/N=C(\c1ccc(Cl)cc1)c1cc(F)ccc1O [Progabide]
(+)bicuculline; bicuculline administered i.v., data from Worms et al. 1982
  ED50 BIC: 30 mg/kg
strychnine
  ED50 STR: 75 mg/kg
picrotoxin; picrotoxin administered i.v., data from Worms et al. 1982
  ED50 PICRO: 105 mg/kg
Maximal electroshock [1]; data from Worms et al. 1982
  ED50 MES: 75 mg/kg
[2]; metrazol administered i.v., data from Worms et al. 1982
  ED50 MTZ: 30 mg/kg

## C[C@H](O)[C@H]1CC[C@H]2[C@@H]3CC[C@H]4C[C@H](O)CC[C@]4(C)[C@H]3CC[C@]12C [3α,20a(S)-dihydroxy-5α-pregnane, 3α,20α(S)-Dihydroxy-5α-pregnane]
GR complex
  IC50: 99 nM
  IMAX: 46
rats; b-CD, 10 ug
  Vogel (% of control): 193.0 % of control
[3]; IP, micro soln.
  % Protected: 30%

## CCC[C@H](O)[C@H]1CC[C@H]2[C@@H]3CC[C@H]4C[C@H](O)CC[C@]4(C)[C@H]3CC[C@]12C [3α,20α-dihydroxy-21-ethyl-5α-pregnane]
GR complex
  IC50: 27 nM
  IMAX: 13
rats; g-CD, 20 ug
  Vogel (% of control): 225.8 % of control

## CC(O)C1CCC2C3CCC4CC(O)C(F)CC4(C)C3CCC12C (stereo not drawn) [2β-Fluoro-3α,20α-dihydroxy-5α-pregnane]
rats; g-CD, 20 ug
  Vogel (% of control): 264.9 % of control

## CC[C@H](O)[C@H]1CC[C@H]2[C@@H]3CC[C@H]4C[C@H](O)CC[C@]4(C)[C@H]3CC[C@]12C [3α,20α-dihydroxy-21-methyl-5α-pregnane, 3α,20α-Dihydroxy-21-methyl-5α-pregnane]
GR complex
  IC50: 35 nM
  IMAX: 28
rats; g-CD, 10 ug
  Vogel (% of control): 157.9 % of control

## CCC1(c2ccccc2)C(=O)NC(=O)NC1=O [Phenobarbital]
Mice [4]
  ED50 RR: 69 mg/kg

## C[C@]12CC[C@@H](O)C[C@@H]1CC[C@@H]1[C@@H]2CC[C@]2(C)[C@@H](C(=O)CO)CC[C@@H]12 [3α,21-dihydroxy-5α-pregnan-20-one, reference compound]
GR complex
  IC50: 76 nM
  IMAX: 100
[3]; IP, 50% hpbcd, 10 minutes prior to metrazol (85 mg/kg)
  % Protected: 87.5%
[3]; Mus musculus, metrazol s.c., steroid i.p., 20% hydroxypropyl-β-cyclodextrin in water
  ED50: 8.1 mg/kg
Maximal electroshock [5]
  ED50: 26.7 mg/kg

## C[C@@H](O)[C@H]1CC[C@H]2[C@@H]3CC[C@@H]4C[C@H](O)CC[C@]4(C)[C@H]3CC[C@]12C [3α,20β-Dihydroxy-5β-pregnane]
rats; g-CD, 20 ug
  Vogel (% of control): 267.3 % of control

## CC(C)OC1CC2(C)C(CCC3C2CCC2(C)C(C(C)O)CCC32)CC1O (stereo not drawn) [3α,20α-Dihydroxy-2β-isopropoxy-5α-pregnane]
rats; g-CD, 10 ug
  Vogel (% of control): 169.0 % of control

## O=C1CN=C(c2ccccc2Cl)c2cc([N+](=O)[O-])ccc2N1 [Clonazepam]
(+)bicuculline; bicuculline, data from Swinyard & Woodhead 1982, NP = no protection
  ED50 BIC: 0.0086 mg/kg
Mice [4]
  ED50 RR: 0.184 mg/kg
picrotoxin; picrotoxin, data from Swinyard & Woodhead 1982, NP = no protection
  ED50 PICRO: 0.043 mg/kg
Maximal electroshock [1]; data from Swinyard & Woodhead 1982
  ED50 MES: 93 mg/kg
[2]; metrazol, data from Swinyard & Woodhead 1982, NP = no protection
  ED50 MTZ: 0.009 mg/kg

## C#C[C@@]1(O)CC[C@@]2(C)[C@H](CC[C@@H]3[C@@H]2CC[C@]2(C)[C@@H](C(=O)COC(=O)CCC(=O)O)CC[C@@H]32)C1 [Sodium 3α,21-dihydroxy-3β-ethynyl-5β-pregnan-20-one 21-hemisuccinate]
GR complex
  IC50: 540 nM
  IMAX: 102
Mice [6]; PO, water, 10 mg/kg
  % Control: 159%
[3]; mouse, in vivo, ip
  % Protected: 50%
other
  soluble in water: > 20 mg/mL

## C[C@H](O)[C@H]1CC[C@H]2[C@@H]3CC[C@@H]4C[C@H](O)CC[C@]4(C)[C@H]3CC[C@]12C [3α,20α-Dihydroxy-5β-pregnane]
rats; g-CD, 10 ug
  Vogel (% of control): 283.3 % of control

## CC(=O)[C@H]1CC[C@H]2[C@@H]3CC[C@@H]4C[C@H](O)CC[C@]4(C)[C@H]3CC[C@]12C [3α-Hydroxy-5β-pregnan-20-one, reference compound]
Mice [6]; 5 mg/kg (p ≤ 0.05)
  entries into the open-arms: significant increases
Mice [6]; 10 mg/kg (p ≤ 0.01)
  entries into the open-arms: significant increases
  time spent on the open-arms: significant increases
Mice [7]; 10 & 20 mg/kg, compared to control groups
  activity: significant (p < 0.01) increases
Mice [7]; at doses tested, versus control (Dunnett's t-test)
  number of transitions between the dark box and the light box: significantly increased
